We go through 12 compounds from ChEMBL document CHEMBL1201862, “PubChem BioAssay data set” (2004).

Structures are written as SMILES.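 Dose response: 5 concentrations. Exposure: 48 h. Format: 96-well plates. Endpoint: linear interpolation; highest concentration if not reached. Abbreviation: GI50, concentration required for 50% inhibition of growth.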 Calls of active or inactive are those of the source. Rule as the data show it: active = GI50 up to about 1.1 µM and inactive = higher.

Test systems include ACHN; COLO 205; EKVX; HCT-15; HL-60; HOP-92; Malme-3M; NCI-H23; NCI-H522; OVCAR-8; SF-268; SK-OV-3; SN12C; SNB-19; SNB-75; U-251; UACC-62; CAKI-1.
Assay in all cases: NCI anticancer screen, dose series, 48 h

With `Nc1nc(SCCC/C=C/B(O)O)nc2c1ncn2C1OC(CO)C(O)C1O` (stereo not given), the GI50 with ACHN is > 243 µM (inactive); with COLO 205, > 243 µM (inactive); in the test with EKVX it was > 243 µM (inactive); with HCT-15, more than 243 µM; in the test on HL-60 it was > 243 µM (inactive); in the test with HOP-92, > 243 µM (inactive). Moreover, the GI50 with Malme-3M, in the test with NCI-H23, in the test on NCI-H522, with OVCAR-8, in the test on SF-268 and with SK-OV-3 was > 243 µM (inactive) in each case. The GI50 in the test with SN12C, with SNB-19, in the test on SNB-75, with U-251 and with UACC-62 was > 243 µM (inactive) in each case.

Consider `Cc1nc(-c2cccnc2)sc1C(=O)/C=C/c1cccc([N+](=O)[O-])c1`, for which the GI50 in the test with CAKI-1 is > 100 µM (inactive); with COLO 205, > 100 µM (inactive); in the test with EKVX, > 100 µM (inactive); with HCT-15, more than 100 µM; with HL-60 it was > 100 µM (inactive); with HOP-92, > 100 µM (inactive). Besides, the GI50 in the test with Malme-3M, in the test with NCI-H23, in the test on NCI-H522, in the test on OVCAR-8, with SF-268 and with SK-OV-3 was > 100 µM (inactive) each time. In addition, the GI50 with SN12C, in the test on SNB-75, with U-251 and in the test with UACC-62 was > 100 µM (inactive) each time.

Consider `O=c1[nH]cnc2[nH]nnc12`, for which the GI50 is 12 µM (inactive) with ACHN; 1.25 µM (inactive) with CAKI-1; 47.1 µM (inactive) in the test with COLO 205; > 100 µM (inactive) with EKVX; 11.6 µM with HCT-15; 0.323 µM (active) in the test on HL-60. The GI50 in the test on HOP-92 was 2.19 µM (inactive); in the test on Malme-3M, 1.41 µM (inactive); in the test with NCI-H23 it was 35.6 µM (inactive); in the test with NCI-H522, 9.51 µM (inactive); in the test on OVCAR-8 it was 0.723 µM (active); with SF-268, 1.06 µM (active). Also, the GI50 in the test with SK-OV-3 is 4.31 µM (inactive); with SN12C it was 1.93 µM (inactive); in the test on SNB-19, 88.5 µM (inactive); with SNB-75, 4.11 µM (inactive); in the test on U-251, 34.6 µM (inactive); in the test with UACC-62 it was 0.968 µM (active).

Regarding `O=S1(=O)OCCOS(=O)(=O)C1Cl`, the GI50 with CAKI-1, in the test on COLO 205, in the test on EKVX, in the test on HL-60, in the test with HOP-92 and with Malme-3M was > 100 µM (inactive) throughout. Further, the GI50 in the test with NCI-H23, with NCI-H522, with OVCAR-8, in the test with SF-268, in the test on SK-OV-3 and in the test on SN12C was > 100 µM (inactive) each time. Also, the GI50 in the test on SNB-19 was > 100 µM (inactive); in the test with SNB-75 it was > 100 µM (inactive); with UACC-62, 82.6 µM (inactive).

For the compound `O=C(Nc1ccc(Cl)cc1Cl)c1c/c(=N\O)c2ccc(O)cc2o1`, the GI50 in the test on ACHN was > 100 µM (inactive); with CAKI-1, > 100 µM (inactive); in the test with COLO 205, > 100 µM (inactive); with HCT-15, more than 100 µM; in the test on HL-60, > 100 µM (inactive); with HOP-92, > 100 µM (inactive). In addition, the GI50 in the test on Malme-3M, with NCI-H23, in the test on NCI-H522, in the test on OVCAR-8, in the test on SF-268 and in the test with SK-OV-3 was > 100 µM (inactive) in each case. Further, the GI50 is > 100 µM (inactive) in the test with SN12C; > 100 µM (inactive) with SNB-19; 30.9 µM (inactive) in the test on SNB-75; > 100 µM (inactive) in the test with U-251; > 100 µM (inactive) with UACC-62.

`O=C(CC(=O)c1ccc([N+](=O)[O-])cc1)C(=O)Nc1nccs1`: the GI50 in the test with ACHN is > 100 µM (inactive); with CAKI-1, > 100 µM (inactive); in the test with EKVX, > 100 µM (inactive); with HCT-15, more than 100 µM; with HL-60, > 100 µM (inactive); with HOP-92, > 100 µM (inactive). For the same compound, the GI50 with Malme-3M, in the test with NCI-H23, with NCI-H522, in the test with SF-268, in the test on SK-OV-3 and in the test with SN12C was > 100 µM (inactive) throughout. For the same compound, the GI50 with SNB-19, with SNB-75, in the test with U-251 and with UACC-62 was > 100 µM (inactive) in each case.

For `C=C1C(=O)O[C@H]2C1[C@H](OC(=O)/C(C)=C\COC(C)=O)C[C@]1(CO1)[C@@H]1[C@H](O)[C@H]3O[C@@]3(C)[C@@H]12` (stereo not given in full), the GI50 with CAKI-1 was 14.3 µM (inactive); in the test on COLO 205 it was 8.73 µM (inactive); in the test with EKVX, 26.3 µM (inactive); with HCT-15, 18.5 µM; with HL-60, 13.9 µM (inactive); in the test with HOP-92 it was 15.2 µM (inactive). Further, the GI50 is 20.7 µM (inactive) with Malme-3M; 14.3 µM (inactive) with NCI-H23; 8.87 µM (inactive) with NCI-H522; 24.8 µM (inactive) in the test on OVCAR-8; 21.1 µM (inactive) in the test on SF-268; > 67 µM (inactive) in the test on SK-OV-3. The GI50 with SN12C was 22.3 µM (inactive); in the test on SNB-19, > 100 µM (inactive); in the test on SNB-75 it was 37 µM (inactive); with U-251, 21.7 µM (inactive); with UACC-62, 15.8 µM (inactive).

Consider `COC(=O)C(C#N)C1NC(=O)c2ccccc21` (stereo not given), for which the GI50 with ACHN is > 100 µM (inactive); in the test on COLO 205, > 100 µM (inactive); with EKVX, > 100 µM (inactive); in the test with HCT-15 it was more than 100 µM; with HL-60 it was > 100 µM (inactive); in the test with HOP-92, > 100 µM (inactive). Moreover, the GI50 in the test with Malme-3M, with NCI-H23, with NCI-H522, in the test on OVCAR-8, in the test with SF-268 and in the test with SK-OV-3 was > 100 µM (inactive) throughout. In addition, the GI50 in the test with SN12C was > 100 µM (inactive); in the test on SNB-19, > 100 µM (inactive); in the test on SNB-75, 9.71 µM (inactive); in the test with U-251, > 100 µM (inactive); in the test on UACC-62, > 100 µM (inactive).

For the compound `C=C1C(=O)OC2/C=C(\C)CC(O)/C=C(/CO)CC(OC(=O)/C(C)=C/C)C12` (stereo not given), the GI50 with CAKI-1 is 34.8 µM (inactive); with COLO 205, 19.3 µM (inactive); in the test with EKVX, 23 µM (inactive); with HCT-15, 38.4 µM; in the test on HL-60 it was 13.3 µM (inactive); with HOP-92 it was 30.9 µM (inactive). Moreover, the GI50 in the test on Malme-3M is 18.9 µM (inactive); in the test with NCI-H23, 27.7 µM (inactive); with NCI-H522, 13 µM (inactive); with OVCAR-8, 24 µM (inactive); in the test on SF-268, 46.8 µM (inactive); with SK-OV-3, 158 µM (inactive). The GI50 with SN12C was 131 µM (inactive); with SNB-19 it was 114 µM (inactive); in the test with SNB-75 it was 133 µM (inactive); in the test with U-251 it was 86.1 µM (inactive); in the test on UACC-62 it was 37.8 µM (inactive).

`Nc1n[n+](-c2ccccc2)no1`: the GI50 is 8.49 µM (inactive) with ACHN; 24.7 µM (inactive) in the test on CAKI-1; 45.3 µM (inactive) in the test with COLO 205; > 100 µM (inactive) with EKVX; 28.1 µM with HCT-15; 14.9 µM (inactive) in the test on HL-60. The GI50 with HOP-92 was 25.4 µM (inactive); in the test with Malme-3M, 34.7 µM (inactive); in the test on NCI-H23, 65.3 µM (inactive); with NCI-H522, 41.7 µM (inactive); in the test on OVCAR-8, 80 µM (inactive); with SF-268, 42 µM (inactive). Moreover, the GI50 in the test with SK-OV-3 is > 100 µM (inactive); in the test on SN12C it was 82.4 µM (inactive); in the test on SNB-19 it was > 100 µM (inactive); in the test on U-251, 51.4 µM (inactive); in the test on UACC-62, 5.37 µM (inactive).

For `NC1=NS(=O)(=O)Nc2nc(-c3ccc([N+](=O)[O-])o3)[nH]c21`, the GI50 with ACHN is 16.9 µM (inactive); in the test on CAKI-1, 21.3 µM (inactive); in the test on COLO 205, > 10 µM (inactive); in the test on HCT-15, 19.9 µM; in the test on HL-60, 1.9 µM (inactive); in the test with HOP-92, 14 µM (inactive). Besides, the GI50 is 16.7 µM (inactive) with Malme-3M; 19.6 µM (inactive) in the test with NCI-H23; 17.4 µM (inactive) with NCI-H522; 25.1 µM (inactive) with OVCAR-8; 20 µM (inactive) in the test with SF-268; > 10 µM (inactive) in the test on SK-OV-3. The GI50 in the test with SN12C is 17.7 µM (inactive); in the test on SNB-19 it was 16.7 µM (inactive); in the test with SNB-75, 16 µM (inactive); with U-251, 16.9 µM (inactive); with UACC-62, 15.9 µM (inactive).

For the compound `Cn1nc2ccc3nccc(NCCNCCCl)c3c2n1`, the GI50 with ACHN is > 100 µM (inactive); with CAKI-1, > 10 µM (inactive); in the test with COLO 205, > 100 µM (inactive); in the test with EKVX, > 100 µM (inactive); in the test with HCT-15, more than 100 µM; in the test on HL-60, > 100 µM (inactive). Also, the GI50 in the test on HOP-92, with Malme-3M, in the test on NCI-H522, with OVCAR-8, in the test on SF-268 and with SK-OV-3 was > 100 µM (inactive) each time. The GI50 in the test with SN12C, with SNB-19, in the test with SNB-75 and in the test on UACC-62 was > 100 µM (inactive) each time.
